Data as given in US20220274947A1, “NOVEL HETEROARYL-TRIAZOLE COMPOUNDS AS PESTICIDES” (Bayer Aktiengesellschaft, priority 2019, published 2022).

Tests used:
Assay type in all cases: in vivo
Rhipicephalus microplus = assay: Rhipicephalus (Boophilus) microplus dip test (BOOPMI Dip); details: 168 h, application rate 100 ppm, engorged adult female ticks, after 7 days, read-out: activity (efficacy: 100% means all eggs are infertile)
Procedure: Rhipicephalus (Boophilus) Microplus—Dip Test (BOOPMI Dip)
Test Animal: cattle ticks (Rhipicephalus microplus) strain parkhurst, SP-resistant Solvent: dimethyl sulfoxide
To produce a suitable preparation of active compound, 10 mg of active compound are dissolved in 0.5 mL solvent, and the concentrate is diluted with water to the desired concentration.
This compound solution is pipetted into tubes. 8-10 engorged, adult, female cattle ticks (Rhipicephalus microplus) are placed in perforated tubes. These tubes are immersed in the aqueous compound solution until the ticks are completely moistened. After the liquid has drained off, the ticks are transferred to a filter paper in a plastic tray and stored in a climate chamber.
After 7 days egg deposition of fertile eggs is monitored. Eggs where fertility is not visible are stored in a climate chamber till hatching after about 42 days. An efficacy of 100% means all eggs are infertile; 0% means all eggs are fertile.

Ctenocephalides felis = Ctenocephalides felis oral test (CTECFE Oral); details: 48 h, read-out: activity (mortality)
Method in brief: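 Percent mortality was recorded 2 days after roughly 20 adult Ctenocephalides felis fed on treated cattle blood. The blood was warmed to 37 °C beneath a parafilm membrane, with the fleas kept at room temperature. Compound was dissolved in DMSO and diluted into the blood to test concentration.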

Rhipicephalus sanguineus = Rhipicephalus sanguineus in-vitro contact test, adult brown dog ticks (RHIPSA Cont); details: 48 h, after 48 hours, read-out: activity (efficacy: 100% means all ticks are dead or moribund); for pest or weed control at 1 µg/cm2, 100 g/ha: application rate 1 μg/cm^2 (=100 g/ha); for pest or weed control at 5 µg/cm2, 500 g/ha: application rate 5 μg/cm^2 (=500 g/ha)
Method in brief: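 Mortality of adult R. sanguineus was judged 48 h after contact with acetone-applied residues on glass tube walls. Ticks that stayed immotile or moved without coordination when heated to 45–50 °C (max 5 min) counted as dead or moribund.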

Myzus persicae = Myzus persicae oral test; details: 120 h, read-out: activity (mortality)
Method in brief: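 Percent mortality was recorded at day 5, where 0% means no aphids killed. Compound prepared from an acetone concentrate diluted in water and combined with IPL41 medium containing sugar was offered to mixed-stage green peach aphids, which sucked it through a parafilm seal.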

[1] = system: Aedes aegypti strain MONHEIM; assay: Aedes aegypti test (AEDSAE surface treatment & contact assay); details: exposure 30 minutes, 24 hours after contact, read-out: efficacy (mortality); for mortality at 4 mg/m2: surface concentration 4 mg/m^2, glazed tile; for mortality at 20 mg/m2: surface concentration 20 mg/m^2, glazed tile
Method in brief: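 Compound dissolved in acetone (2 mg/ml) with 2000 ppm rapeseed oil methyl ester, pipetted onto glazed tile and dried. Adult mosquitoes exposed on the surface for 30 min; percent mortality scored 24 h after contact.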

[2] = system: Musca domestica strain WHO—N; assay: Musca domestica test (MUSCDO surface treatment & contact assay); details: exposure 30 minutes, 24 hours after contact, read-out: efficacy (mortality); for mortality at 20 mg/m2: surface concentration 20 mg/m^2, glazed tile; for mortality at 4 mg/m2: surface concentration 4 mg/m^2, glazed tile
Method in brief: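 Compound dissolved in acetone (2 mg/ml) with 2000 ppm rapeseed oil methyl ester and pipetted onto glazed tile; after acetone evaporation, adult flies exposed to dried surface for 30 minutes. Mortality (%) scored 24 hours after contact.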

[3] = system: Culex quinquefasciatus strain P00; assay: Culex quinquefasciatus test (CULXFA surface treatment & contact assay); details: exposure 30 minutes, 24 hours after contact, read-out: efficacy (mortality); for mortality at 4 mg/m2: surface concentration 4 mg/m^2, glazed tile; for mortality at 20 mg/m2: surface concentration 20 mg/m^2, glazed tile
Method in brief: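 Test compound in acetone (2 mg/ml) with 2000 ppm RME pipetted onto glazed tile; after acetone evaporation, adult strain P00 mosquitoes exposed to dried surface for 30 min. Mortality (%) scored 24 h after contact; 100% = all dead, 0% = none dead.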

[4] = system: Anopheles funestus strain FUMOZ-R; assay: Anopheles funestus test (ANPHFU surface treatment & contact assay); details: exposure 30 minutes, 24 hours after contact, read-out: efficacy (mortality); for mortality at 4 mg/m2: surface concentration 4 mg/m^2, glazed tile; for mortality at 20 mg/m2: surface concentration 20 mg/m^2, glazed tile
Method in brief: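 Adult FUMOZ-R mosquitoes were exposed 30 min to glazed tiles treated with compound in acetone plus 2000 ppm rapeseed oil methyl ester, after solvent evaporation. Percent mortality was scored 24 h after contact.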

Row | Compound | pest or weed control at 100 ppm (Rhipicephalus microplus) [%] | mortality at 100 ppm (Ctenocephalides felis) [%] | pest or weed control at 1 µg/cm2, 100 g/ha (Rhipicephalus sanguineus) [%] | pest or weed control at 5 µg/cm2, 500 g/ha (Rhipicephalus sanguineus) [%] | mortality at 4 ppm (Myzus persicae) [%] | mortality at 4 mg/m2 [1] [%] | mortality at 20 mg/m2 [1] [%] | mortality at 20 mg/m2 [2] [%] | mortality at 4 mg/m2 [2] [%] | mortality at 4 mg/m2 [3] [%] | mortality at 20 mg/m2 [3] [%] | mortality at 4 mg/m2 [4] [%] | mortality at 20 mg/m2 [4] [%]
1 | CCc1nc([C@H](C)NC(=O)c2cc(C(F)(F)F)cc(C(F)(F)F)c2)n(-c2ccc(C#N)cn2)n1 [I-1] | 100 | 90 | 80 | 100 | 100 | 80 to 100 | 80 to 100 | 80 to 100 |  |  |  |  | 
2 | CCc1nc([C@H](C)NC(=O)c2cc(Cl)cc(Cl)c2)n(-c2ccc(C#N)cn2)n1 [I-2] | 100 | 90 |  | 100 |  |  |  |  | 80 to 100 |  |  |  | 
3 | C[C@H](NC(=O)c1ccnc(C(F)(F)F)n1)c1ncnn1-c1ccc(C#N)cn1 [II-8] |  | 100 | 100 | 100 |  | 80 to 100 | 80 to 100 | 80 to 100 | 80 to 100 | 80 to 100 | 80 to 100 | 80 to 100 | 80 to 100
4 | C[C@H](NC(=O)c1cccc(Cl)n1)c1ncnn1-c1ccc(C#N)cn1 [II-9] |  | 90 |  | 80 |  |  |  | 80 to 100 |  |  | 80 to 100 | 80 to 100 | 80 to 100
5 | C[C@H](NC(=O)c1cc(Cl)cc(C(F)F)c1)c1ncnn1-c1ccc(C#N)cn1 [II-12] |  | 100 | 100 | 100 | 100 | 80 to 100 |  | 80 to 100 | 80 to 100 | 80 to 100 | 80 to 100 | 80 to 100 | 80 to 100
6 | C[C@H](NC(=O)c1cc(Cl)cc(OC(F)(F)F)c1)c1ncnn1-c1ncc(Cl)s1 [II-16] |  | 100 | 100 | 100 |  |  | 80 to 100 | 80 to 100 |  |  | 80 to 100 |  | 80 to 100
7 | Cc1nc([C@H](C)NC(=O)c2cc(Cl)cc(Cl)c2)n(-c2cc(C#N)ccn2)n1 [II-17] |  | 100 | 80 | 100 |  | 80 to 100 | 80 to 100 | 80 to 100 | 80 to 100 |  | 80 to 100 | 80 to 100 | 80 to 100
8 | CC(=O)Nc1ccnc(-n2ncnc2[C@H](C)NC(=O)c2cc(Cl)cc(OC(F)(F)F)c2)c1 [II-22] |  | 100 |  |  |  | 80 to 100 | 80 to 100 | 80 to 100 | 80 to 100 | 80 to 100 | 80 to 100 | 80 to 100 | 80 to 100
9 | CCN(C)C(=O)c1ccc(-n2ncnc2[C@H](C)NC(=O)c2cc(Cl)cc(C(F)(F)F)c2)nc1 [II-27] |  |  | 100 | 100 | 100 | 80 to 100 | 80 to 100 |  |  |  | 80 to 100 |  | 80 to 100
10 | C[C@H](NC(=O)c1cc(Cl)cc(C(F)(F)F)c1)c1ncnn1-c1cc(N)ccn1 [II-28] |  | 100 | 100 | 100 | 90 |  | 80 to 100 | 80 to 100 |  | 80 to 100 | 80 to 100 |  | 
